The target of the assay is H.c.LSU group II intron. It is filed as biochemical, Histoplasma capsulatum. The conditions noted are these: logistic fit of kobs against 14 inhibitor concentrations, 5 nM to 300 μM; MB18 readout; 37° C.; read-out: KI (inhibition constant) of the self-splicing reaction.

“And” between values parts separate entries of the source, which are not always exact repeats. Identical values can stand only once.

Regarding `O=C1c2c(O)ccc(O)c2C(=O)c2c(NCCNCCO)ccc(NCCNCCO)c21` [mitoxantrone], the Ki was 1.79 µM and 2.24 µM.

By Ki is commonly meant a dissociation constant, usually derived from enzyme kinetics or from competition with a known ligand.

For the origin of these results see patent publication US20250034620A1 (priority 2022, published 2025).
